Drawing on patent publication US12497386B2, “Estrogen receptor-modulating compounds” (RADIUS PHARMACEUTICALS, INC., priority 2018, dated 2025), this text covers IC50 for 36 compounds.

Where only a bound is given, the exact number is not on record here.

As usually defined, the IC50 is the concentration at which inhibition is half-maximal. High values mean weaker potency in that assay, low ones greater potency in that assay.

This experiment deals with MCF-7 cells. Briefly: MCF-7 Proliferation Inhibition Assay. Type of experiment: cell-based, human. Particulars: 10 pM dose of E2, 7 days incubation, CellTiterGlo viability. Here is the method:
Proliferation Assay in MCF-7 and T47D Cells
MCF-7 and T47D cells were stripped for 3 days in phenol red-free RPMI1640 media containing 10% charcoal-stripped fetal bovine serum (CS-FBS) and 1% Penicillin/streptomycin (P/S). Cells (volume of 90 μl/well) were seeded in 96 well plates at a density of 2500 cells/well for MCF-7 cells and 1500 cells/well for T47D cells. On the following day, plates were treated with the test compounds (10× concentration in media, volume of 10 μl/well added) both in the absence and in the presence of two doses of E2 (10 pM and 1 nM). The cells were incubated with test compounds for 7 days. The viability of the cells was assessed using CellTiterGlo (Promega, Cat #G7573) according to the manufacturer's instructions. Growth inhibition curves and IC50 values were calculated using the GraphPadPrism 6.0 software. Data values shown in Table 1 were obtained using the 10 pM dose of E2.
For orientation: Cellular ATP, detected with luciferase, serves as a proxy for viable cell number.

As for `Cc1ccccc1-c1sc2cc(O)ccc2c1Oc1ccc(CCNC2CC2)cc1` [BT-05, 3-(4-(2-(Cyclopropylamino)ethyl)phenoxy)-2-(o-tolyl)benzo[b]thiophen-6-ol], where the note is “Homo sapiens, MCF7, 168 h”, the IC50 was under 1 nM.
Same read-out and setting: next, `Cc1ccccc1-c1sc2cc(O)ccc2c1Oc1ccc(CCNCC2CC2)cc1` [BT-12, 3-(4-(2-((Cyclopropylmethyl)amino)ethyl)phenoxy)-2-(o-tolyl)benzo[b]thiophen-6-ol]: under 1 nM; `CCCN1CC(=Cc2ccc(Oc3c(-c4ccccc4C)sc4cc(O)ccc34)cc2)C1` [BT-17, 3-(4-((1-Propylazetidin-3-ylidene)methyl)phenoxy)-2-(o-tolyl)benzo[b]thiophen-6-ol]: under 1 nM; `Cc1ccccc1C1=C(Cc2ccc(CCNC3CC3)cc2)c2ccc(O)cc2OCC1` [Bx-06, 5-(4-(2-(Cyclopropylamino)ethyl)benzyl)-4-(o-tolyl)-2,3-dihydrobenzo[b]oxepin-8-ol]: under 1 nM.
Take `CCNCCc1ccc(CC2=C(c3ccccc3C)CCOc3cc(O)ccc32)cc1` [Bx-07, 5-(4-(2-(Ethylamino)ethyl)benzyl)-4-(o-tolyl)-2,3-dihydrobenzo[b]oxepin-8-ol]: the IC50 (Homo sapiens, MCF7, 168 h) was under 1 nM.
For the compound `CCNCCc1ccc(Cn2c(-c3ccc(OC)cc3)c(C)c3cc(O)ccc32)cc1` [Compound D-01, 1-(4-(2-(Ethylamino)ethyl)benzyl)-2-(4-methoxyphenyl)-3-methyl-1H-indol-5-ol], the IC50 (Homo sapiens, MCF7, 168 h) fell in the range of 1 to 10 nM.
Under “Homo sapiens, MCF7, 168 h”, `COc1ccc(-c2c(C)c3cc(O)ccc3n2Cc2ccc(CCNC3CC3)cc2)cc1` [Compound D-02, 1-(4-(2-(Cyclopropylamino)ethyl)benzyl)-2-(4-methoxyphenyl)-3-methyl-1H-indol-5-ol] had an IC50 of 1 to 10 nM.
Compound `COc1ccc(-c2c(C)c3cc(O)ccc3n2Cc2ccc(CCNCC3CC3)cc2)cc1` [Compound D-03, 1-(4-(2-((Cyclopropylmethyl)amino)ethyl)benzyl)-2-(4-methoxyphenyl)-3-methyl-1H-indol-5-ol] had an IC50 (Homo sapiens, MCF7, 168 h) of 1 to 10 nM.
As to `COc1ccc(-c2c(C)c3cc(O)ccc3n2Cc2ccc(CCNC(C)C)cc2)cc1` [Compound D-08, 1-(4-(2-(Isopropylamino)ethyl)benzyl)-2-(4-methoxyphenyl)-3-methyl-1H-indol-5-ol], the IC50 (Homo sapiens, MCF7, 168 h) is 1 to 10 nM.
`COc1ccc(-c2c(C)c3cc(O)ccc3n2Cc2ccc(CCNCC(F)(F)F)cc2)cc1` [Compound D-12, 2-(4-Methoxyphenyl)-3-methyl-1-(4-(2-((2,2,2-trifluoroethyl)amino)ethyl)benzyl)-1H-indol-5-ol] showed an IC50 (Homo sapiens, MCF7, 168 h) of over 10 nM.
Compound `CCNCCc1ccc(Cn2c(-c3ccc(OC)cc3)c(Cl)c3cc(O)ccc32)cc1` [Compound D-13, 3-Chloro-1-(4-(2-(ethylamino)ethyl)benzyl)-2-(4-methoxyphenyl)-1H-indol-5-ol] displayed an IC50 (Homo sapiens, MCF7, 168 h) of 1 to 10 nM.
Take `COc1ccc(-c2c(F)c3cc(O)ccc3n2Cc2ccc(CCNC3CC3)cc2)cc1` [Compound D-15, 1-(4-(2-(Cyclopropylamino)ethyl)benzyl)-3-fluoro-2-(4-methoxyphenyl)-1H-indol-5-ol]: the IC50 (Homo sapiens, MCF7, 168 h) is under 1 nM.
`CCNCCc1ccc(Cn2c(-c3ccc(OC)cc3)c(F)c3cc(O)ccc32)cc1` [Compound D-16, 1-(4-(2-(Ethylamino)ethyl)benzyl)-3-fluoro-2-(4-methoxyphenyl)-1H-indol-5-ol] registered an IC50 (Homo sapiens, MCF7, 168 h) of under 1 nM.
Still for that read-out and setting: next, `Cc1ccccc1-c1c(F)c2cc(O)ccc2n1Cc1ccc(CCNC2CC2)cc1` [Compound D-28, 1-(4-(2-(Cyclopropylamino)ethyl)benzyl)-3-fluoro-2-(o-tolyl)-1H-indol-5-ol]: under 1 nM; `CCNCCc1ccc(Cn2c(-c3ccccc3C)c(F)c3cc(O)ccc32)cc1` [Compound D-29, 1-(4-(2-(Ethylamino)ethyl)benzyl)-3-fluoro-2-(o-tolyl)-1H-indol-5-ol]: under 1 nM.
As to `Cc1ccccc1-c1c(F)c2cc(O)ccc2n1Cc1ccc(CC(C)NC2CC2)cc1` [Compound D-32, 1-(4-(2-(Cyclopropylamino)propyl)benzyl)-3-fluoro-2-(o-tolyl)-1H-indol-5-ol], the half-inhibitory concentration (IC50) (Homo sapiens, MCF7, 168 h) is under 1 nM.
Where the note is “Homo sapiens, MCF7, 168 h”, `Oc1ccc2c(c1)c(F)c(-c1ccccc1C(F)(F)F)n2Cc1ccc(CCNC2CC2)cc1` [Compound D-33, 1-(4-(2-(Cyclopropylamino)ethyl)benzyl)-3-fluoro-2-(2-(trifluoromethyl)phenyl)-1H-indol-5-ol] displayed an IC50 of under 1 nM.
The compound `CCNCCc1ccc(Cn2c(-c3ccccc3C(F)(F)F)c(F)c3cc(O)ccc32)cc1` [Compound D-34, 1-(4-(2-(Ethylamino)ethyl)benzyl)-3-fluoro-2-(2-(trifluoromethyl)phenyl)-1H-indol-5-ol] came in with an IC50 (Homo sapiens, MCF7, 168 h) of under 1 nM.
For the compound `Cc1cc(F)ccc1-c1c(F)c2cc(O)ccc2n1Cc1ccc(CCNC2CC2)cc1` [Compound D-36, 1-(4-(2-(Cyclopropylamino)ethyl)benzyl)-3-fluoro-2-(4-fluoro-2-methylphenyl)-1H-indol-5-ol], the IC50 (Homo sapiens, MCF7, 168 h) is under 1 nM.
For `Oc1ccc2c(c1)c(F)c(-c1ccccc1Cl)n2Cc1ccc(CCNC2CC2)cc1` [Compound D-37, 2-(2-Chlorophenyl)-1-(4-(2-(cyclopropylamino)ethyl)benzyl)-3-fluoro-1H-indol-5-ol], the IC50 (Homo sapiens, MCF7, 168 h) was under 1 nM.
The compound `Cc1ccccc1-c1c(F)c2cc(O)ccc2n1Cc1ccc(CCNCC2CC2)cc1` [Compound D-39, 1-(4-(2-((Cyclopropylmethyl)amino)ethyl)benzyl)-3-fluoro-2-(o-tolyl)-1H-indol-5-ol] displayed an IC50 (Homo sapiens, MCF7, 168 h) of under 1 nM.
The same measure, in the same setting: next, `Oc1ccc2c(c1)c(F)c(-c1ccccc1C(F)(F)F)n2Cc1ccc(CCNCC2CC2)cc1` [Compound D-40, 1-(4-(2-((Cyclopropylmethyl)amino)ethyl)benzyl)-3-fluoro-2-(2-(trifluoromethyl)phenyl)-1H-indol-5-ol]: under 1 nM.
`Cc1ccccc1-c1c(F)c2cc(O)ccc2n1Cc1ccc(CCNC2CCC2)cc1` [Compound D-46, 1-(4-(2-(Cyclobutylamino)ethyl)benzyl)-3-fluoro-2-(o-tolyl)-1H-indol-5-ol] showed an IC50 (Homo sapiens, MCF7, 168 h) of under 1 nM.
Compound `Cc1cccc(C)c1-c1c(F)c2cc(O)ccc2n1Cc1ccc(CCNC2CCC2)cc1` [Compound D-50, 1-(4-(2-(Cyclobutylamino)ethyl)benzyl)-2-(2,6-dimethylphenyl)-3-fluoro-1H-indol-5-ol] showed an IC50 (Homo sapiens, MCF7, 168 h) of under 1 nM.
For the setting “Homo sapiens, MCF7, 168 h”, `Cc1cc(O)ccc1-c1c(F)c2cc(O)ccc2n1Cc1ccc(CCNC2CC2)cc1` [Compound D-52, 1-(4-(2-(Cyclopropylamino)ethyl)benzyl)-3-fluoro-2-(4-hydroxy-2-methylphenyl)-1H-indol-5-ol] showed an IC50 of under 1 nM.
For `CCCNCCc1ccc(Cn2c(-c3ccccc3-c3ccccc3)c(F)c3cc(O)ccc32)cc1` [Compound D-66, 2-([1,1′-Biphenyl]-2-yl)-3-fluoro-1-(4-(2-(propylamino)ethyl)benzyl)-1H-indol-5-ol], the IC50 (Homo sapiens, MCF7, 168 h) is under 1 nM.
`CCCNCCc1ccc(Cn2c(-c3ccccc3C)c(F)c3cc(O)ccc32)cc1` [Compound D-67, 3-Fluoro-1-(4-(2-(propylamino)ethyl)benzyl)-2-(o-tolyl)-1H-indol-5-01] registered an IC50 of under 1 nM.
As for `CCCCNCCc1ccc(Cn2c(-c3ccccc3C)c(F)c3cc(O)ccc32)cc1` [Compound D-68, 1-(4-(2-(Butylamino)ethyl)benzyl)-3-fluoro-2-(o-tolyl)-1H-indol-5-01], the IC50 was under 1 nM.
Consider `Cc1ccccc1-c1c(F)c2cc(O)ccc2n1Cc1ccc(CCNCCCF)cc1` [Compound D-69, 3-Fluoro-1-(4-(2-((3-fluoropropyl)amino)ethyl)benzyl)-2-(o-tolyl)-1H-indol-5-ol], for which, where the note is “Homo sapiens, MCF7, 168 h”, the IC50 was under 1 nM.
On the same count and under the same terms, the result for `Cc1ccccc1-c1c(F)c2cc(O)ccc2n1Cc1ccc(CCNCCF)cc1` [Compound D-70, 3-Fluoro-1-(4-(2-((2-fluoroethyl)amino)ethyl)benzyl)-2-(o-tolyl)-1H-indol-5-ol] reads under 1 nM; that for `CCNCCc1ccc(Cn2c(-c3c(C)cccc3C)c(F)c3cc(O)ccc32)cc1` [Compound D-78, 2-(2,6-Dimethylphenyl)-1-(4-(2-(ethylamino)ethyl)benzyl)-3-fluoro-1H-indol-5-ol], under 1 nM.
Regarding `CCNCCc1ccc(Cn2c(-c3ccccc3C)c(F)c3c4cn[nH]c4ccc32)cc1` [Compound D-85, N-Ethyl-2-(4-((8-fluoro-7-(o-tolyl)pyrrolo[3,2-e]indazol-6(3H)-yl)methyl)phenyl)ethan-1-amine], under “Homo sapiens, MCF7, 168 h”, the IC50 is under 1 nM.
In turn, `CCCNCCc1ccc(Cn2c(-c3ccccc3OC)c(F)c3cc(O)ccc32)cc1` [Compound D-87, 3-Fluoro-2-(2-methoxyphenyl)-1-(4-(2-(propylamino)ethyl)benzyl)-1H-indol-5-ol] came in with an IC50 (Homo sapiens, MCF7, 168 h) of under 1 nM.
`Cc1ccccc1-c1c(F)c2c3cn[nH]c3ccc2n1Cc1ccc(CCNCC2CC2)cc1` [Compound D-88, N-(Cyclopropylmethyl)-2-(4-((8-fluoro-7-(o-tolyl)pyrrolo[3,2-e]indazol-6(3H)-yl)methyl)phenyl)ethan-1-amine] had an IC50 (Homo sapiens, MCF7, 168 h) of under 1 nM.
Same read-out and setting: the result for `Cc1ccccc1-c1c(F)c2c3cn[nH]c3ccc2n1Cc1ccc(CCNC2CCC2)cc1` [Compound D-89, N-(4-((8-Fluoro-7-(o-tolyl)pyrrolo[3,2-e]indazol-6(3H)-yl)methyl)phenethyl)cyclobutanamine] reads under 1 nM; that for `Cc1ccccc1-c1c(F)c2c3cn[nH]c3ccc2n1Cc1ccc(CCNC2CC2)cc1` [Compound D-90, N-(4-((8-Fluoro-7-(o-tolyl)pyrrolo[3,2-e]indazol-6(3H)-yl)methyl)phenethyl)cyclopropanamine], under 1 nM.
